According to patent US9732322B2, “Compositions for mesoderm derived ISL1+ multipotent cells (IMPs), epicardial progenitor cells (EPCs) and multipotent C56C cells (C56Cs) and methods of producing and using same” (UNIVERSITY OF GEORGIA RESEARCH FOUNDATION, INC., priority 2008, dated 2017):
Blank lines part the entries; values can stand above or below the molecule they belong to.

How the values were obtained:
Isl1+ IMP (Spl-m) cells = assay: Stage 2 differentiation of Isl1+ IMPs/Spl-m to Wt1+ epicardial progenitor (PE-like) cells; type: cell-based, human; conditions: for Erk activation in Isl1+ Spl-m: immunoblot, phospho-Erk1,2
Description: hESC/hFib2-iPS4 hiPSCs grown in StemPro defined media/defined media were differentiated into IMPs (as described above and elsewhere). At day 4, IMP cell stage, the defined media was supplemented with BMP4 (50 ng/ml, range about 2-100 ng/ml, R&D Systems), Wnt3a (25 ng/ml, range about 1-100+ng/ml, R&D Systems) and all-trans retinoic acid (4 μM, range about 0.25-25 μM Sigma), media changed every 2 (1-4 days) days, for about 10-16 days (about 7-25 days) (FIG. 39). The expression of Wt-1, Tbx18, Raldh2 and Tcf21 (epicardin) were confirmed by Q-PCR (FIGS. 40, 42) and Wt-1 by immunofluorescence (FIG. 41). This method typically gives cultures that are >80% positive for Wt1.
(§1) WA01, WA07, WA09, BG01 and BG02 hESCs and Fib-iPS4 hIPSCs^28 were adapted from mouse embryo fibroblast feeder-based culture conditions to feeder-free growth in chemically defined media (CDM) using single cell suspensions^50. Briefly, CDM is composed of DMEM/F12 (Mediatech), 2% probumin (Bovine Serum Albumin fraction V) biotech grade (Millipore), 1× nonessential amino acids, 50 U/mL penicillin, 50 μg/mL streptomycin, 1× trace elements A, B, C (all from Mediatech), 10 μg/mL transferrin, 0.1 mM […] (Gibco), 50 μg/mL ascorbic acid (Sigma), 8 ng/mL bFGF (Invitrogen), 200 ng/mL LR-IGF (Sigma), 10 ng/mL Activin A (R and D Systems) and 10 ng/mL […] (Peprotech). Cells were passaged every 4-5 d using Accutase (Innovative Cell Technologies) to form a single cell suspension and then plated onto plates coated with 1:200 Geltrex (Invitrogen) at a cell density of 7.5×10^4 cells/cm^2 at 37° C. in 5% CO2. Media was changed every 24 h. To differentiate hESC in Stage 1 (FIG. 62), cells were plated at a density of 5.1×10^4 cells/cm^2 into CDM containing 25 ng/mL rmWnt3a and 100 ng/mL rhBMP4 (R&D Systems). Cells were cultured at 37° C. in 5% CO2 and media changed every 24 h for 4-6 d. CDM for Stage 2 of differentiation was supplemented with 25 ng/mL rmWnt3a, 50 ng/mL rhBMP4 with either 100 ng/ml Fgf2 or 4 μM all-trans retinoic acid (Sigma), changing media every 48 h for 10-16 d. For Stage 3 differentiation, Stage 2 cells were passaged at day 16 into CDM without Activin A, supplemented with 10 ng/mL rhVEGF-A165 (R&D Systems). All bright field images were acquired on a Leica DMIL microscope.
Progenitor cells of the coronary vasculature are believed to reside in the PE and after forming the epicardium, seed the myocardium for future vessel formation. Many unanswered questions remain as to the characteristics of these progenitor cells but clearly, a better understanding of PE development will provide significant insight into this question. Lineage tracing studies in vivo indicate that PE and epicardium forms from an Isl1^+ Nkx2.5^+ progenitor^6, 18, 29. […]

CXCR4 receptor = target: T1, CXCR4 receptor (Homo sapiens, UniProt P61073); assay: Boyden chamber migration assay of C56C cells; type: cell-based
T1 construct: endogenous in cells; host or cells: C56C cells (CXCR4+ CD56+), differentiated from MMCs derived from human pluripotent stem cells
Description: FIG. 61. To investigate the mechanisms by which C56Cs migrate towards ischemic/damaged tissue we assayed these cells in a Boyden chamber assay. 300,000 C56C cells were seeded in the upper chamber of a Boyden chamber.
To investigate the mechanisms by which C56Cs migrate towards ischemic/damaged tissue we assayed these cells in a Boyden chamber assay. 300,000 C56C cells were seeded in the upper chamber of a Boyden chamber.

[1] = tested on: hESC-derived Wt1+ PE cells (EPCs); assay: Stage 3 differentiation of Wt1+ EPC/PE cells to smooth muscle and endothelial cells, immunostaining; type: cell-based, human; conditions: VEGF 10 ng/ml, 10 days
Description: WA01, WA07, WA09, BG01 and BG02 hESCs and Fib-iPS4 hIPSCs^28 were adapted from mouse embryo fibroblast feeder-based culture conditions to feeder-free growth in chemically defined media (CDM) using single cell suspensions^50. Briefly, CDM is composed of DMEM/F12 (Mediatech), 2% probumin (Bovine Serum Albumin fraction V) biotech grade (Millipore), 1× nonessential amino acids, 50 U/mL penicillin, 50 μg/mL streptomycin, 1× trace elements A, B, C (all from Mediatech), 10 μg/mL transferrin, 0.1 mM 3-mercaptoethanol (Gibco), 50 μg/mL ascorbic acid (Sigma), 8 ng/mL bFGF (Invitrogen), 200 ng/mL LR-IGF (Sigma), 10 ng/mL Activin A (R and D Systems) and 10 ng/mL Heregulin 13 (Peprotech). Cells were passaged every 4-5 d using Accutase (Innovative Cell Technologies) to form a single cell suspension and then plated onto plates coated with 1:200 Geltrex (Invitrogen) at a cell density of 7.5×10^4 cells/cm^2 at 37° C. in 5% CO2. Media was changed every 24 h. To differentiate hESC in Stage 1 (FIG. 62), cells were plated at a density of 5.1×10^4 cells/cm^2 into CDM containing 25 ng/mL rmWnt3a and 100 ng/mL rhBMP4 (R&D Systems). Cells were cultured at 37° C. in 5% CO2 and media changed every 24 h for 4-6 d. CDM for Stage 2 of differentiation was supplemented with 25 ng/mL rmWnt3a, 50 ng/mL rhBMP4 with either 100 ng/ml Fgf2 or 4 μM all-trans retinoic acid (Sigma), changing media every 48 h for 10-16 d. […]

WA09 hESCs = assay: Stage 1 differentiation of WA09 hESCs to Isl1+ splanchnic mesoderm; Q-PCR, immunostaining, flow cytometry; type: cell-based, human; conditions: for differentiation / gene expression changes with single factor alone: data not shown
Description: as §1, with “To differentiate hESC in Stage 1 (FIG. 62), cells were plated at a density of 5.1×10^4 cells/cm^2 into CDM containing 25 ng/mL rmWnt3a and 100 ng/mL rhBMP4 (R&D Systems).” left out
Cells were collected as single cell suspensions following harvesting with Accutase and then analyzed using a Cyan flow cytometer (Dako). Cells were blocked with species-specific serum for 30 min followed by blocking with CD16/32 (eBiosciences) for a further 15 min then, with specific antibodies shown in FIG. 81, Table 4. Immunofluorescence was performed on 4% paraformaldehyde-fixed cells in the presence of 10% donkey serum and 0.25% Triton X100 followed by visualization using 2.5% donkey serum in PBS with fluorescent conjugated secondary antibodies. DAPI (Sigma) was used to counterstain nuclei. […]

Molecule: CC1=C(/C=C/C(C)=C/C=C/C(C)=C/C(=O)O)C(C)(C)CCC1 [RA, All-trans retinoic acid, reference compound]
- treated cells expressing Wt1, Raldh2 and Tbx20 (Isl1+ IMP (Spl-m) cells; RA 4 μM with Wnt3a and BMP4, immunofluorescence): More than 90%
- Erk activation in Isl1+ Spl-m (Isl1+ IMP (Spl-m) cells): activated Erk

Molecule: Fgf2: fibroblast growth factor 2
- transcripts expressed in PE/epicardium (Wt1, Raldh2, Tbx18, Tbx5) (Isl1+ IMP (Spl-m) cells; Fgf2 100 ng/ml after 4 days of Wnt/BMP): dramatic increases
- Erk activation in Isl1+ Spl-m (Isl1+ IMP (Spl-m) cells): activated Erk

- migration of C56C cells towards cytokine in lower chamber (CXCR4 receptor; 300,000 C56C cells in upper chamber): responsive and migrate towards
Molecule: SDF1: SDF1 cytokine

Molecule: VEGF
- cells positive for CD31 and VE-cadherin (endothelial cells) [1]: 10-20%
- cells positive for SMA and calponin (smooth muscle cells) [1]: 80-90%

- migration of C56C cells towards SDF1 (CXCR4 receptor; antagonist added): blocked
Molecule: c1cc(CN2CCCNCCNCCCNCC2)ccc1CN1CCCNCCNCCCNCC1 [AMD3100]

B1: Wnt3a: wingless (Wnt) protein (protein, UniProt P56704 19-352, looked up)
Protein Wnt-3a: SYPIWWSLAVGPQYSSLGSQPILCASIPGLVPKQLRFCRNYVEIMPSVAEGIKIGIQECQHQFRGRRWNCTTVHDSLAIFGPVLDKATRESAFVHAIASAGVAFAVTRSCAEGTAAICGCSSRHQGSPGKGWKWGGCSEDIEFGGMVSREFADARENRPDARSAMNRHNNEAGRQAIASHMHLKCKCHGLSGSCEVKTCWWSQPDFRAIGDFLKDKYDSASEMVVEKHRESRGWVETLRPRYTYFKVPTERDLVYYEASPNFCEPNPETGSFGTRDRTCNVSSHGIDGCDLLCCGRGHNARAERRREKCRCVFHWCCYVSCQECTRVYDVHTCK
- differentiation / gene expression changes with single factor alone (WA09 hESCs): None of the gene expression changes

B2: Dkk1: Wnt antagonist Dkk1 (protein, UniProt O94907 32-266, looked up)
Dickkopf-related protein 1: TLNSVLNSNAIKNLPPPLGGAAGHPGSAVSAAPGILYPGGNKYQTIDNYQPYPCAEDEECGTDEYCASPTRGGDAGVQICLACRKRRKRCMRHAMCCPGNYCKNGICVSSDQNHFRGEIEETITESFGNDHSTLDGYSRRTTLSSKMYHTKGQEGSVCLRSSDCASGLCCARHFWSKICKPVLKEGQVCTKHRRKGSHGLEIFQRCYCGEGLSCRIQKDHHQASNSSRLHTCQRH
- BMP4-dependent differentiation of hESCs without exogenous Wnt3a (WA09 hESCs; Dkk1 150 ng/ml with BMP4 50 ng/ml): blocked

B3: BMP4: bone morphogenic protein 4 (protein, UniProt P12644 293-408, looked up)
Bone morphogenetic protein 4: SPKHHSQRARKKNKNCRRHSLYVDFSDVGWNDWIVAPPGYQAFYCHGDCPFPLADHLNSTNHAIVQTLVNSVNSSIPKACCVPTELSAISMLYLDEYDKVVLKNYQEMVVEGCGCR
- differentiation / gene expression changes with single factor alone (WA09 hESCs): promoted differentiation
